Measured values as given in ChEMBL document CHEMBL1201862, “PubChem BioAssay data set” (2004).
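Results reflect a 48-hour exposure of cells in 96-well plates to compound at five concentrations. GI50: concentration for 50% inhibition of growth.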 Calls of active or inactive are those of the source. Rule as the data show it: active = GI50 up to about 1.1 µM and inactive = higher.

Experiments:
Assay in all cases: DTP human tumour cell line panel, 48 h
[1] = test system: KM-20L2
[2] = test system: UACC-62
[3] = test system: NCI-H226
[4] = test system: SK-MEL-28
[5] = test system: RXF 393
[6] = test system: SN12C
[7] = test system: U-251
[8] = test system: DLD-1
[9] = test system: DMS-114
[10] = test system: HOP-62
[11] = test system: NCI-H23
[12] = test system: CCRF-CEM
[13] = test system: HT-29
[14] = test system: NCI-H522
[15] = test system: XF498
[16] = test system: COLO 205
[17] = test system: HOP-18
[18] = test system: SNB-78
[19] = test system: HCT-116
[20] = test system: LOX IMVI
[21] = test system: UACC-257
[22] = test system: DMS-273
[23] = test system: NCI/ADR-RES
[24] = test system: SNB-19
[25] = test system: M19-MEL
[26] = test system: OVCAR-4
[27] = test system: KM12
[28] = test system: HCC 2998
[29] = test system: OVCAR-8
[30] = test system: RPMI-8226
[31] = test system: HOP-92
[32] = test system: SW-620
[33] = test system: OVCAR-5
[34] = test system: SF-268
[35] = test system: SK-MEL-5
[36] = test system: MCF7
[37] = test system: SF-295
[38] = test system: K562
[39] = test system: CAKI-1
[40] = test system: HCT-15
[41] = test system: MOLT-4
[42] = test system: SK-MEL-2
[43] = test system: OVCAR-3
[44] = test system: SK-OV-3
[45] = test system: Malme-3M
[46] = test system: NCI-H460
[47] = test system: SNB-75
[48] = test system: HL-60
[49] = test system: EKVX
[50] = test system: UO-31
[51] = test system: SF-539
[52] = test system: A549
[53] = test system: A498
[54] = test system: IGROV-1
[55] = test system: TK-10
[56] = test system: 786-0
[57] = test system: LXFL 529
[58] = test system: ACHN
[59] = test system: M14

`OCC1OC(n2cnc3c2NC=NC[C@H]3O)C(O)C1O` (some centres not stated) was tested, and the GI50 [1] was 444 µM (inactive), the GI50 [2] was > 450 µM (inactive) and the GI50 [3] was 173 µM (inactive). For the same compound, the GI50 [4] was > 450 µM (inactive), the GI50 [5] was 238 µM (inactive) and the GI50 [6] was 293 µM (inactive). For the same compound, the GI50 [7] was > 450 µM (inactive), the GI50 [8] was 300 µM (inactive) and the GI50 [9] was > 450 µM (inactive). The GI50 [10] was > 337 µM (inactive), the GI50 [11] was 445 µM (inactive) and the GI50 [12] was 172 µM (inactive). For the same compound, the GI50 [13] was > 450 µM (inactive), the GI50 [14] was 312 µM (inactive) and the GI50 [15] was > 274 µM (inactive). The GI50 [16] was > 450 µM (inactive), the GI50 [17] was 71.3 µM (inactive) and the GI50 [18] was > 450 µM (inactive). For the same compound, the GI50 [19] was 260 µM (inactive), the GI50 [20] was 170 µM (inactive) and the GI50 [21] was > 450 µM (inactive). For the same compound, the GI50 [22] was 303 µM (inactive), the GI50 [23] was > 436 µM (inactive) and the GI50 [24] was > 450 µM (inactive). The GI50 [25] was > 450 µM (inactive), the GI50 [26] was > 450 µM (inactive) and the GI50 [27] was > 450 µM (inactive). For the same compound, the GI50 [28] was > 330 µM (inactive), the GI50 [29] was > 450 µM (inactive) and the GI50 [30] was 201 µM (inactive). For the same compound, the GI50 [31] was > 192 µM (inactive), the GI50 [32] was 317 µM (inactive) and the GI50 [33] was > 450 µM (inactive). The GI50 [34] was > 384 µM (inactive), the GI50 [35] was > 71.3 µM (inactive) and the GI50 [36] was > 450 µM (inactive). The GI50 [37] was > 450 µM (inactive), the GI50 [38] was 249 µM (inactive) and the GI50 [39] was 226 µM (inactive). For the same compound, the GI50 [40] was 205 µM, the GI50 [41] was 318 µM (inactive) and the GI50 [42] was 339 µM (inactive). The GI50 [43] was > 450 µM (inactive), the GI50 [44] was 234 µM (inactive) and the GI50 [45] was > 355 µM (inactive). For the same compound, the GI50 [46] was 164 µM (inactive), the GI50 [47] was 412 µM (inactive) and the GI50 [48] was 86.7 µM (inactive). The GI50 [49] was > 450 µM (inactive), the GI50 [50] was 282 µM (inactive) and the GI50 [51] was > 450 µM (inactive). For the same compound, the GI50 [52] was 396 µM (inactive), the GI50 [53] was 208 µM (inactive) and the GI50 [54] was > 450 µM (inactive).
`CCOC(=O)C1S/C(=N\c2ccc(Cl)cc2Cl)N=C1C` (configuration not stated) was tested, and the GI50 [1] was > 100 µM (inactive), the GI50 [2] was 46.9 µM (inactive) and the GI50 [3] was > 100 µM (inactive). For the same compound, the GI50 [4] was > 100 µM (inactive), the GI50 [5] was 27.5 µM (inactive) and the GI50 [6] was > 100 µM (inactive). The GI50 [7] was 58.1 µM (inactive), the GI50 [8] was 73.6 µM (inactive) and the GI50 [9] was 33.1 µM (inactive). For the same compound, the GI50 [10] was 51.9 µM (inactive), the GI50 [11] was 39.4 µM (inactive) and the GI50 [13] was > 100 µM (inactive). For the same compound, the GI50 [14] was 35.9 µM (inactive), the GI50 [15] was 39.5 µM (inactive) and the GI50 [16] was > 100 µM (inactive). For the same compound, the GI50 [17] was > 100 µM (inactive), the GI50 [18] was 60.7 µM (inactive) and the GI50 [19] was 65.6 µM (inactive). For the same compound, the GI50 [20] was 74.5 µM (inactive), the GI50 [55] was > 100 µM (inactive) and the GI50 [21] was 88.3 µM (inactive). The GI50 [22] was 61.1 µM (inactive), the GI50 [56] was 53.3 µM (inactive) and the GI50 [24] was 47.5 µM (inactive). For the same compound, the GI50 [57] was 75.2 µM (inactive), the GI50 [25] was 86.5 µM (inactive) and the GI50 [26] was 20.8 µM (inactive). For the same compound, the GI50 [27] was > 100 µM (inactive), the GI50 [28] was > 100 µM (inactive) and the GI50 [29] was 74.6 µM (inactive). For the same compound, the GI50 [31] was 20.6 µM (inactive), the GI50 [32] was > 100 µM (inactive) and the GI50 [33] was > 100 µM (inactive). For the same compound, the GI50 [34] was > 100 µM (inactive), the GI50 [35] was 48.6 µM (inactive) and the GI50 [37] was 32.1 µM (inactive). For the same compound, the GI50 [38] was > 100 µM (inactive), the GI50 [39] was 66.2 µM (inactive) and the GI50 [40] was > 100 µM. The GI50 [42] was 61.5 µM (inactive), the GI50 [43] was 96.6 µM (inactive) and the GI50 [45] was 76.7 µM (inactive). For the same compound, the GI50 [46] was 86.5 µM (inactive), the GI50 [58] was 95.1 µM (inactive) and the GI50 [47] was 26.1 µM (inactive). For the same compound, the GI50 [48] was 68.4 µM (inactive), the GI50 [49] was > 100 µM (inactive) and the GI50 [50] was > 100 µM (inactive). For the same compound, the GI50 [59] was 81.8 µM (inactive), the GI50 [51] was 53 µM (inactive) and the GI50 [52] was 76.4 µM (inactive). The GI50 [53] was 39.3 µM (inactive) and the GI50 [54] was > 100 µM (inactive).
